Reference: patent US8962257B2, “Methods for diagnosing heart failure and other cardiac diseases” (The Trustees of the University of Pennsylvania, priority 2010, dated 2015)

Test system: NRG-1β
Experiment: Serial plasma NRG-1β by indirect sandwich ELISA in Her-2+ breast cancer patients receiving doxorubicin and trastuzumab
Format: in vivo, human
Details: with Doxorubicin exposure
Method: NRG-1β is measured from frozen, previously unthawed serum or plasma samples that had been stored at −80° C. until time of assay. An indirect sandwich enzyme-linked immunosorbent assay (ELISA) was used (NRG1-β1 Duoset ELISA development system from R&D Systems, Minneapolis, Minn.). Assay technology was adapted for human samples, and all measurements were performed at Vanderbilt University. […] Following incubation, a biotinylated goat anti-human NRG1-β1 detection antibody was added to each well, and a streptavidin-HRP system was used for detection. […] Extensive validation was performed and there was no cross-reactivity with NRG-1α isoform or epidermal growth factor.
Data were obtained at enrollment and every 3 months during anti-cancer therapy.
NRG-1β plasma level was measured serially every 3 months during chemotherapy treatment.

COc1cccc2c1C(=O)c1c(O)c3c(c(O)c1C2=O)C[C@@](O)(C(=O)CO)C[C@@H]3O[C@H]1C[C@H](N)[C@H](O)[C@H](C)O1 [Doxorubicin, doxorubicin]
change in NRG-1β over time: significant decrease
change in NRG-1β over time (listed as doxorubicin): significant decline
